The values below come from ChEMBL document CHEMBL1201862, “PubChem BioAssay data set” (2004).

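A five-concentration, 48-hour dose response in 96-well plates underlies each endpoint, interpolated linearly between surrounding concentrations. Here, GI50 denotes the concentration required for 50% inhibition of growth.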 Calls of active or inactive are those of the source. No stated cut-off is given here; in the data, active = GI50 up to about 1.1 µM and inactive = higher. Some results are limits rather than exact numbers.

What all share (experiment): NCI anticancer screen, dose series, 48 h
Assay [1] relates to IGROV-1.
Assay [2] has as its system OVCAR-5.
In assay [3] the test system is SK-MEL-28.
The test system of assay [4] is LXFL 529.
Assay [5] relates to KM-20L2.
The subject of assay [6] is UACC-257.
In assay [7] the test system is DLD-1.
In assay [8] the test system is HCT-116.
For assay [9], the system named is EKVX.
In assay [10] the test system is NCI-H460.
The test system of assay [11] is XF498.
For assay [12], the system named is M19-MEL.
Assay [13] has as its system NCI-H522.
Assay [14] has as its system OVCAR-8.
For assay [15], the system named is CAKI-1.
Assay [16] relates to 786-0.

For the compound `Nc1ccc2c(c1)C(=O)N(O)C2=O`, the GI50 in assay [1], in assay [2], in assay [3], in assay [4], in [5] and in assay [6] was > 100 µM (inactive) in each case. The GI50 in assay [7], in [8], in assay [9], in [10], in assay [11] and in assay [12] was > 100 µM (inactive) in each case.
`Cc1ccc2c(c1)C(=O)N(N(C)C)CC(=O)N2`: the GI50 in assay [1], in assay [2], in assay [3], in [4], in [6] and in assay [7] was > 100 µM (inactive) each time. In addition, the GI50 in [8], in assay [9], in assay [13], in assay [14], in assay [10] and in [11] was > 100 µM (inactive) in each case. Moreover, the GI50 in assay [15] and in assay [12] was > 100 µM (inactive) each time.
Regarding `COC1CCC(O)C(CO)O1` (stereo not drawn), the GI50 was 22.7 µM (inactive) in [1]; > 100 µM (inactive) in [2]; > 100 µM (inactive) in assay [3]; 50.6 µM (inactive) in [4]; > 100 µM (inactive) in assay [5]; 37.4 µM (inactive) in assay [6]. Besides, the GI50 is > 100 µM (inactive) in [7]; > 100 µM (inactive) in assay [8]; > 100 µM (inactive) in assay [9]; 13.4 µM (inactive) in assay [13]; > 100 µM (inactive) in assay [14]; > 100 µM (inactive) in assay [10]. Also, the GI50 in assay [11] was > 100 µM (inactive); in [12] it was 60.7 µM (inactive).
As to `CC1(C)OC2CC(=O)OCC23C1CC(=O)C1(C)C3CCC2(C)C(c3ccoc3)OC(=O)C3OC321` (stereo not drawn), the GI50 is > 125 µM (inactive) in assay [1]; > 125 µM (inactive) in [2]; > 125 µM (inactive) in assay [3]; > 125 µM (inactive) in assay [5]; 124 µM (inactive) in assay [6]; > 125 µM (inactive) in [7]. For the same compound, the GI50 in assay [8] was > 125 µM (inactive); in assay [9] it was > 58.1 µM (inactive); in [13], > 125 µM (inactive); in [14], 11.7 µM (inactive); in assay [10], > 125 µM (inactive); in [11] it was > 125 µM (inactive). Also, the GI50 in [15] is 16.1 µM (inactive); in [12], > 125 µM (inactive).
On to `CCCCn1/c(=N/C(=S)N(C)C)ss/c1=N\C(=S)N(C)C`, for which the GI50 in assay [1], in assay [2], in assay [3], in [4], in assay [5] and in assay [6] was > 100 µM (inactive) in each case. Moreover, the GI50 in assay [7], in [8], in [16], in assay [9], in [14] and in assay [10] was > 100 µM (inactive) each time. Moreover, the GI50 in assay [11], in [15] and in [12] was > 100 µM (inactive) throughout.
For the compound `COc1cc(C2c3cc4c(cc3[C@@H](Nc3ccc5c(c3)OCO5)C3COC(=O)[C@H]23)OCO4)cc(OC)c1O` (stereo partly drawn), the GI50 in assay [1] is 2.49 µM (inactive); in assay [2], 2.74 µM (inactive); in [3] it was 3.43 µM (inactive); in assay [5], 2.24 µM (inactive); in assay [6], 0.507 µM (active); in assay [7], 1.55 µM (inactive). In addition, the GI50 in assay [8] was 0.74 µM (active); in [9], 2.45 µM (inactive); in assay [13], 1.06 µM (active); in assay [14] it was 1.38 µM (inactive); in [10] it was < 0.01 µM (active); in [11], 1.64 µM (inactive). Also, the GI50 in assay [15] was 0.152 µM (active); in assay [12], 1.65 µM (inactive).
